Assays:
PARP-1 = molecular target: T1, PARP-1 (Homo sapiens, UniProt P09874); experiment: PARP-1 inhibitory activity, HT universal colorimetric PARP assay kit (Trevigen); format: biochemical; settings: estimation as calculated from a 4 point dose response curve; read-out: PARP-1 activity in vitro IC50
T1 construct: purchased Trevigen
Method: The compounds were tested for PARP-1 inhibitory activity by using HT universal colorimetric PARP assay kit obtained from Trevigen, following manufacturer's protocol.

[1] = system: SW620 colorectal tumor cells (xenograft tumors); experiment: In vivo antitumor efficacy in combination with temozolomide (TMZ) in an SW620 tumor model; parameters: species or system Female athymic nude mice; settings: for Tumor growth delay: time to RTV4 treated minus control
Method: On basis of the in vitro data, the ability of selected compounds to potentiate the antitumor activity of the methylating chemotherapeutic agent, temozolomide, was evaluated in an SW 620 tumor model.
Animals bearing SW 620 xenograft tumors were treated with the compounds in combination with TMZ (50 mg/Kg, po) once daily for 5 consecutive days, after which the tumors were left to grow out.
Female athymic nude mice were used for antitumor in vivo studies. SW620 colorectal tumor cells (1×10^7 cells per animal) were implanted s.c. into one flank of each mouse. When tumors were palpable (10-12 days after implantation), animals were treated (n=6-8/group) with five daily doses of temozolomide administered per os as a suspension in 0.5% methyl cellulose at 50 mg/kg either alone or in combination with a five daily per os administrations of PARP inhibitor at different doses. Tumor growths were measured using two-dimensional caliper measurements. Tumor volume was calculated using the equation a^2×b/2, where a is the smallest measurement and b is the largest. Data are presented as median relative tumor volumes (RTV), defined as the calculated tumor volume divided by the calculated tumor volume on the initial day of treatment (day 0). Thus, on day 0, the RTV value is 1 and RTV4 is when the tumor is four times as large as its initial value. Control animals were treated with vehicle ([…] in methyl cellulose) alone tumor growth delay (TGD)=Time to RTV4 in treated group−time to RTV4 control.

[2] = compound 10 mg/kg, po + TMZ 50 mg/kg, once daily for 5 days, compound 45 min before TMZ
[3] = compound 10 mg/kg, po + TMZ 50 mg/kg, once daily for 5 days

T1 sequence (P09874 whole entry): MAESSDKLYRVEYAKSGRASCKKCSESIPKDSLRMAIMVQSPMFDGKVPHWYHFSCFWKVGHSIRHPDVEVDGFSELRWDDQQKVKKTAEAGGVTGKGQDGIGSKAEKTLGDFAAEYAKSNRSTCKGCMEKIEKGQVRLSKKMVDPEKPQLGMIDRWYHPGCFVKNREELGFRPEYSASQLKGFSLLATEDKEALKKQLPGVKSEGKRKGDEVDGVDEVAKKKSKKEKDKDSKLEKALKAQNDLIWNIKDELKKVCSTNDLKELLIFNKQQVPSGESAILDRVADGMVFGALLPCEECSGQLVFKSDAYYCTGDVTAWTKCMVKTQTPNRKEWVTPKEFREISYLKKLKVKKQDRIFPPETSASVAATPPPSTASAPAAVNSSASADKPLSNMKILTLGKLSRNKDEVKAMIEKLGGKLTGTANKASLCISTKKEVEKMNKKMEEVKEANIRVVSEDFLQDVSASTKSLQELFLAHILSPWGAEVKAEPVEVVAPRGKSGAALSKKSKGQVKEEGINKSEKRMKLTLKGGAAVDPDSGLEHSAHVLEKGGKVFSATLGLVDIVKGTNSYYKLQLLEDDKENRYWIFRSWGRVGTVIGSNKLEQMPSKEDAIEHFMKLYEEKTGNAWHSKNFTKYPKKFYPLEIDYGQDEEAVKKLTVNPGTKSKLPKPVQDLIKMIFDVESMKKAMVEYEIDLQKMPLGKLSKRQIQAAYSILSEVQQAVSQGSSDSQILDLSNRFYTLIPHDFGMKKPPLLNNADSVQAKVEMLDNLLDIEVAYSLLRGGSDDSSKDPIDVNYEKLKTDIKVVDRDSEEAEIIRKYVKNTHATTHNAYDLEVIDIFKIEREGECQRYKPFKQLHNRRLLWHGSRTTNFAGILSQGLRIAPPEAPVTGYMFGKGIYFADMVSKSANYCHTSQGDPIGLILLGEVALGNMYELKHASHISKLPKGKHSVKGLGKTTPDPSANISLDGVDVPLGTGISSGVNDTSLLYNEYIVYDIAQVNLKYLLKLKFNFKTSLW

Molecule: O=C(c1cc(Cc2n[nH]c(=O)c3ccccc23)ccc1F)N1Cc2cocc2C1 [Compound 20, 4-(3-(5,6-dihydro-4H-furo[3,4-c]pyrrole-5-carbonyl)-4-fluorobenzyl)phthalazin-1(2H)-one]
- IC50 (PARP-1): 11.8 nM
- Median time to RTV4 ([1]; compound 50 mg/kg, po + TMZ 50 mg/kg, once daily for 5 days, compound 45 min before TMZ): 43 days
- Tumor growth delay ([1]; compound 50 mg/kg, po + TMZ 50 mg/kg, once daily for 5 days): 33 days

Molecule: Cn1cc2c(n1)CN(C(=O)c1cc(Cc3n[nH]c(=O)c4ccccc34)ccc1F)C2 [Compound 35, 4-(4-fluoro-3-(2-methyl-2,4,5,6-tetrahydropyrrolo[3,4-c]pyrazole-5-carbonyl)benzyl) phthalazin-1(2H)-one]
- IC50 (PARP-1): 29.9 nM
- Median time to RTV4 [1, 2]: 50 days
- Tumor growth delay [1, 3]: 40 days

Molecule: Cn1ncc2c1CN(C(=O)c1cc(Cc3n[nH]c(=O)c4ccccc34)ccc1F)C2 [Compound 36]
- IC50 (PARP-1): 27.9 nM
- Median time to RTV4 [1, 2]: 37 days
- Tumor growth delay [1, 3]: 27 days
- Median time to RTV4 ([1]; compound 30 mg/kg, po + TMZ 50 mg/kg, once daily for 5 days, compound 45 min before TMZ): 44 days
- Tumor growth delay ([1]; compound 30 mg/kg, po + TMZ 50 mg/kg, once daily for 5 days): 34 days
- Median time to RTV4 ([1]; compound 100 mg/kg, po + TMZ 50 mg/kg, once daily for 5 days, compound 45 min before TMZ): 65 days
- Tumor growth delay ([1]; compound 100 mg/kg, po + TMZ 50 mg/kg, once daily for 5 days): 55 days

Molecule: Cn1nnc2c(C(N)=O)ncn2c1=O [Temozolomide, reference compound]
- Median time to RTV4 ([1]; Temozolomide alone 50 mg/kg, po, once daily for 5 consecutive days): 22 days
- Tumor growth delay ([1]; Temozolomide alone 50 mg/kg, po, once daily for 5 days): 12 days

Molecule: Mixture of 1 & 2 Ethyl 4-(3-(2,4,5,6-tetrahydropyrrolo[3,4-c]pyrazole-5-carbonyl)-4-fluorobenzyl)phthalazin-1(2H)-one [Compound 40]
- IC50 (PARP-1): 9.9 nM

Molecule: Mixture of 4-(4-fluoro-3-(1-methyl-1,4,5,6-tetrahydropyrrolo[3,4-c]pyrazole-5-carbonyl)benzyl)phthalazin-1(2H)-one compound with 4-(4-fluoro-3-(2-methyl-2,4,5,6-tetrahydropyrrolo[3,4-c]pyrazole-5-carbonyl)benzyl)phthalazin-1(2H)-one (1:3) [Compound 28]
- IC50 (PARP-1): 20.7 nM

Molecule: Mixture of (1 & 2 isopropyl) 4-(4-fluoro-3-(1,4,5,6-tetrahydropyrrolo[3,4-c]pyrazole-5-carbonyl)benzyl)phthalazin-1(2H)-one [Compound 44]
- IC50 (PARP-1): 19.9 nM

Reference: patent US9598418B2, “Substituted phthalazin-1 (2H)-one derivatives as selective inhibitors of poly (ADP-ribose) polymerase-1” (CADILA HEALTHCARE LIMITED, priority 2012, dated 2017)
